Laboratory results taken from publication PMC6284238 (Neuron, 2017).

Target: T1, zebrafish SARM1-TIR (Danio rerio, UniProt F1QWA8)
T1 sequence (F1QWA8 552-695 limits assumed): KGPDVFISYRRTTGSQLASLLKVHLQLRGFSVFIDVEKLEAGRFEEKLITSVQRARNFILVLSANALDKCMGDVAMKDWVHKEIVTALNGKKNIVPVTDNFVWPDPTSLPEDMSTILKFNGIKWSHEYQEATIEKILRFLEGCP
Assay: NADase assay with HPLC, purified bacterial protein
Assay type: biochemical

Compound: NC(=O)c1ccc[n+]([C@@H]2O[C@H](COP(=O)([O-])OP(=O)(O)OC[C@H]3O[C@@H](n4cnc5c(N)ncnc54)[C@H](O)[C@@H]3O)[C@@H](O)[C@H]2O)c1 [NAD^+]
- NADase assay with HPLC, purified bacterial protein: bacterially expressed mouse, zebrafish, and Drosophila SARM1-TIR domains also degrade NAD^+ in vitro
